Results reported in patent US4338122A, “Biocidal 2-aryl-1,3-cyclopentanedione compounds and alkali metal and ammonium salts thereof” (Union Carbide Corporation, priority 1980, dated 1982).
Converted amounts (≈) assume the structure as drawn.

Key:
[1] = test system: egg of the two-spotted mite (Tetranychus urticae (Koch)); experiment: Mite Ovicide Test (egg); assay type: in vivo; design: key to Miticidal, Egg (control rating): A: Excellent Control; B: Partial Control; No Control; conditions: for Miticidal, Egg (control rating): Table I, unhatched/hatched eggs four days after spraying; for LC50: Tetranychus urticae, Table II, read-out: Miticidal LD50, Egg (ppm required for a 50 percent kill of eggs)
Protocol: (§1) Suspensions of the test compounds were prepared by dissolving one gram of compound in 50 milliliters of acetone in which had been dissolved 0.1 gram (10 percent of the weight of compound) of an alkylphenoxyethoxyethanol surfactant, as an emulsifying or dispersing agent. The resulting solution was mixed into 160 milliliters of water to give roughly 200 milliliters of a suspension containing the compound in finely divided form. The thus prepared stock suspension contained 0.5 percent by weight of compound. The test concentrations employed in the tests described herein below were obtained by diluting the stock suspension with water. The test procedures were as follows:
The test organism was the egg of the two-spotted mite (Tetranychus urticae (Koch)), as obtained from adults reared on Tendergreen bean plants under controlled conditions of 80°±5° F. and 50±5 percent relative humidity. Heavily infested leaves from a stock culture were placed on the primary leaves of two bean plants six to eight inches in height growing in a two-and-a-half inch clay pot. Females were allowed to oviposit for a period of 48 hours and then the leaves of the infested plants were dipped in a solution containing 800 parts of tetraethyl pyrophosphate per million parts of water in order to destroy the reproductory forms and thus prevent further egg laying. […] The plants were allowed to dry thoroughly. The test compounds were formulated by diluting the stock suspension with water to give a suspension containing varying amounts of test compound per million parts of final formulation. The potted plants (one pot per compound) were placed on a revolving turntable and sprayed with 100-110 milliliters of test compound formulation by use of a DeVilbis spray gun set at 40 spig. air pressure. This application which lasted 30 seconds, was sufficient to wet the plants to run-off. As a control, 100-110 milliliters of a water solution containing acetone and emulsifier in the same concentrations as the test compound formulation, but containing no test compound, were also sprayed on plants infested with eggs. The sprayed plants were held at 80°±5° F. and 50±5 percent relative humidity for four days, after which a microscopic examination was made of unhatched (dead) and hatched (living) eggs.
In these tests the pesticidal activity of the compounds against mites and mite eggs were rated as follows:
(§2) Tests were conducted in accordance with the procedures given at pages 32 to 37 supra. The results are expressed in the same manner as used in Table I, except with respect to miticidal activity. For mite adult and mite egg comparison purposes, results are given in parts per million (ppm) required for a 50 percent kill of mites or eggs, respectively.

Bean = experiment: Post-emergent herbicidal test, bean; assay type: in vivo; design: key: 1: no perceptible injury; 2: intermediate degrees of injury based upon the number and extent to which leaves were injured; 3: intermediate degrees of injury based upon the number and extent to which leaves were injured; 4: intermediate degrees of injury based upon the number and extent to which leaves were injured; 5: the plant was dead; conditions: 2500 parts per million, after ten days
Protocol: as §1
(§3) Experiments were also conducted to determine the phytotoxicity of representative compositions with respect to healthy fresh plants. Solutions of the compounds were prepared as described above to provide a concentration of 2500 parts per million of the test compound. The test plants were sprayed in accordance with the procedure described above for the Mite Foliage Spray Test so as to deliver approximately 100 milliliters of test solutions to the leaves of each plant tested. The sprayed plants and controls were set aside for approximately one hour to allow the solutions to dry and were then placed in the greenhouse. After ten days the plants were visually inspected to determine the extent of foliage injury. A rating of 1 indicates no perceptible injury; 5 indicates the plant was dead and ratings of 2, 3 and 4 indicate intermediate degrees of injury based upon the number and extent to which leaves were injured.
as §2

Corn = experiment: Post-emergent herbicidal test, corn; assay type: in vivo; design: key: 1: no perceptible injury; 2: intermediate degrees of injury based upon the number and extent to which leaves were injured; 3: intermediate degrees of injury based upon the number and extent to which leaves were injured; 4: intermediate degrees of injury based upon the number and extent to which leaves were injured; 5: the plant was dead; conditions: 2500 parts per million, after ten days
Protocol: as §1, §3, §2

Cotton = experiment: Post-emergent herbicidal test, cotton; assay type: in vivo; design: key: 1: no perceptible injury; 2: intermediate degrees of injury based upon the number and extent to which leaves were injured; 3: intermediate degrees of injury based upon the number and extent to which leaves were injured; 4: intermediate degrees of injury based upon the number and extent to which leaves were injured; 5: the plant was dead; conditions: 2500 parts per million, after ten days
Protocol: as §1, §3, §2

Mustard = experiment: Preliminary herbicide seed germination test (pre-emergent), mustard; assay type: in vivo, Brassica pincea var. foliosa (Florida broadleaf); design: key: 5: no seedling emerged; 4: few seedlings emerged and/or very severe stunting; 3: moderate reduction in stand and/or moderate stunting; 2: very slight reduction in stand and/or slight stunting; 1: no injury; seedlings appear no different with respect to stand or growth than untreated controls; conditions: ten to twelve days after application
Protocol: as §1
The following seeds were used in this test:
Mustard--Brassica pincea var. foliosa (Florida broadleaf)
Two soil-seed mixtures were prepared as follows:
Each of the above mixtures was rolled separately in 5 gallon containers for approximately one-half hour on ball mill to insure uniform mixing of seeds and soil. For each compound four 3-inch pots were filled with soil to within 11/2 inches of top of pots. To two of these pots were added 70 cc. of Mixture I. To the remaining 2 pots were added 70 cc. of Mixture II. The seed-soil mixture was tamped firmly, and the pots were removed to the green-house and watered lightly. About 2 hours after planting, 25 milliliters of the test formulation were added to one pot containing Mixture I and one pot containing Mixture II. An equal volume of a water solution containing acetone and an emulsifier in the same concentration as the herbicidal mixture but without the candidate herbicide was also added to each of the soil-seed mixtures. These pots are used as check or control units. The test compounds were formulated by diluting the stock suspension with water to obtain the desired concentration of the compound in parts per million of the final formulation. Each compound was tested at the same concentration. […] Ratings were made according to the following designations: […]

Compound	Miticidal, Egg (control rating) [1]	LC50 [1] [µg/mL]	Post-Emergent Herbicidal, Bean (injury rating) (Bean; Table I)	Post-Emergent Herbicidal, Bean (injury rating) (Bean; Table II)	Post-Emergent Herbicidal, Corn (injury rating) (Corn; Table I)	Post-Emergent Herbicidal, Corn (injury rating) (Corn; Table II)	Post-Emergent Herbicidal, Cotton (injury rating) (Cotton; Table I)	Post-Emergent Herbicidal, Cotton (injury rating) (Cotton; Table II)	Pre-emergent Herbicidal, Mustard (injury rating) (Mustard; Table I)	Pre-emergent Herbicidal, Mustard (injury rating) (Mustard; Table II)
Cc1ccc(C2C(=O)C3CCCCC3C2=O)c(C)c1 (stereo not shown) [CH3 CH3 H (CH2)4, 2-(2',4'-dimethylphenyl)-4,5,6,7,8,9-hexahydro-1,3-indandione]	A	15 (≈ 58.5 µM)	1	1	2	2	2	2	5	5
Cc1ccc(C2C(=O)CCC2=O)c(C)c1 [CH3 CH3 H H H, 2-(2',4'-dimethylphenyl)-1,3-cyclopentanedione]	A	110 (≈ 544 µM)	1	1	2	2	1	1	3	3
Cc1ccc(C)c(C2C(=O)C3CCCCC3C2=O)c1 (stereo not shown) [CH3 H CH3 (CH2)4, 2-(2',5'-dimethylphenyl)-4,5,6,7,8,9-hexahydro-1,3-indandione]	A	30 (≈ 117 µM)	1	1	1	1	1	1	1	1
Cc1ccc(C)c(C2C(=O)CC(C)C2=O)c1 (stereo not shown) [CH3 H CH3 CH3 H, 2-(2',5'-Dimethylphenyl)-4-methyl-1,3-cyclopentanedione]	B		2		3		2		2	
Cc1ccc(C)c(C2C(=O)CCC2=O)c1 [CH3 H CH3 H H]	B		2		2		2		2	
Cc1ccccc1C1C(=O)C2CCCCC2C1=O (stereo not shown) [CH3 H H (CH2)4, 2-(2'-Methylphenyl)-4,5,6,7,8,9-hexahydro-1,3 indandione]	A	22 (≈ 90.8 µM)	2	2	2	2	3	3	2	2
Cc1ccccc1C1C(=O)CCC1=O [CH3 H H H H, 2-(2'-methylphenyl)-1,3-cyclopentanedione]	B	500 (≈ 2660 µM)	3	3	3	3	3	3	1	1
O=C1CCC(=O)C1c1ccc(Cl)cc1Cl [Cl Cl H H H, 2-(2',4'-Dichlorophenyl)-1,3-cyclopentanedione]	B		1		1		2		1	
O=C1CCC(=O)C1c1ccccc1Cl [Cl H H H H]	C		3		2		2		3	
Cc1ccccc1C1C(=O)c2ccccc2C1=O [Reference I Page 3, Compound 1, reference compound]		500 (≈ 2120 µM)		2		1		1		1
Cc1ccc(C)c(C2C(=O)c3ccccc3C2=O)c1 [Reference II Page 146, Compound 6, reference compound]		200 (≈ 799 µM)		1		1		1		1
Cc1ccc(C2C(=O)c3ccccc3C2=O)c(C)c1 [Reference II Page 146, Compound 9, reference compound]		110 (≈ 439 µM)		1		1		1		2
